Data from patent publication US20050153998A1, “Tetrahydroisoquinoline or isochroman compounds” (priority 2003, published 2005).

Molecular target: T1, human ORL1 receptor (Homo sapiens, UniProt P41146)
T1 construct: expressed in transfected cells; host or cells: HEK-293
Assay: ORL1-receptor binding assay ([3H]nociceptin, SPA)
Settings: human ORL1 receptor transfected HEK-293 cell membranes, 0.4 nM [3H]nociceptin; read-out: IC50 value with regard to binding activity for the ORL1 receptor
Experimental: The human ORL1 receptor transfected HEK-293 cell membranes were incubated for 45 min at 22° C. with 0.4 nM [^3H]nociceptin, 1.0 mg of wheat germ agglutinin-coated SPA beads and various concentrations of test compounds in a final volume of 200 μl of 50 mM HEPES buffer pH7.4 containing 10 mM MgCl2 and 1 mM EDTA. Non-specific binding was determined by the addition of 1 μM unlabeled nociceptin. After the reaction, the assay plate was centrifuged at 1,000 rpm for 1 min and then the radioactivity was measured by a Liquid Scintillation Counter.
Each percent NSB thus obtained was graphed as a function of compound concentration. A sigmoidal curve was used to determine 50% bindings (i.e., IC50 values).

T1 sequence (P41146 whole entry): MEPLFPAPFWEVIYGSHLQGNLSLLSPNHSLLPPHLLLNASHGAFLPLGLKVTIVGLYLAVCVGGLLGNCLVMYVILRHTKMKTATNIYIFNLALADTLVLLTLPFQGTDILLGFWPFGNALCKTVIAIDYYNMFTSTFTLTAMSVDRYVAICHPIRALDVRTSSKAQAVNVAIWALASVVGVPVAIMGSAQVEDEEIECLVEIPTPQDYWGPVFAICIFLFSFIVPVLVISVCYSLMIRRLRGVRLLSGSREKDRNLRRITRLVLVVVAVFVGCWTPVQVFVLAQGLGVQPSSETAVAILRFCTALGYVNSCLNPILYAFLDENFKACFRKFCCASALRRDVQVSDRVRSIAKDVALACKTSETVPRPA

## CN1CC2(CCN(CC3Cc4c(F)ccc(O)c4CN3)CC2)c2ccccc21 (centres unmarked) [Example 11, 5-Fluoro-3-[(1-methyl-1,2-dihydro-1′H-spiro[indole-3,4′-piperidin]-1′-yl)methyl]-1,2,3,4-tetrahydroisoquinolin-8-ol]
  IC50: 7.4 nM

## CN1C(=O)C2(CCN(CC3Cc4c(F)ccc(O)c4CN3)CC2)c2ccccc21 (centres unmarked) [Example 22, 1′-[(5-Fluoro-8-hydroxy-1,2,3,4-tetrahydroisoquinolin-3-yl)methyl]-1-methylspiro[indole-3,4′-piperidin]-2(1H)-one]
  IC50: 4.9 nM
